In ChEMBL document CHEMBL3098111, “Discovery of 2,5-diarylnicotinamides as selective orexin-2 receptor antagonists (2-SORAs)” (Bioorg Med Chem Lett, 2013):

Key:
[1] = molecular target: GABA-A receptor; alpha-1/beta-3/gamma-2 (Homo sapiens) (UniProt P14867+P18507+P28472); experiment: Inhibition of human GABA alpha1beta3gamma2 receptor muscimol binding site at 10 uM relative to control; format: protein-complex assay
[2] = molecular target: Estrogen receptor beta (Homo sapiens) (UniProt Q92731); experiment: Inhibition of human ERbeta receptor at 10 uM relative to control
D(3) dopamine receptor = D(3) dopamine receptor (Homo sapiens, UniProt P35462); experiment: Inhibition of human dopamine D3 receptor at 0.1 uM relative to control
[3] = molecular target: Gastrin/cholecystokinin type B receptor (Homo sapiens) (UniProt P32239); experiment: Inhibition of human CCKB receptor at 10 uM relative to control
Chain of Gastrin/cholecystokinin type B receptor (Homo sapiens) (P32239 whole entry): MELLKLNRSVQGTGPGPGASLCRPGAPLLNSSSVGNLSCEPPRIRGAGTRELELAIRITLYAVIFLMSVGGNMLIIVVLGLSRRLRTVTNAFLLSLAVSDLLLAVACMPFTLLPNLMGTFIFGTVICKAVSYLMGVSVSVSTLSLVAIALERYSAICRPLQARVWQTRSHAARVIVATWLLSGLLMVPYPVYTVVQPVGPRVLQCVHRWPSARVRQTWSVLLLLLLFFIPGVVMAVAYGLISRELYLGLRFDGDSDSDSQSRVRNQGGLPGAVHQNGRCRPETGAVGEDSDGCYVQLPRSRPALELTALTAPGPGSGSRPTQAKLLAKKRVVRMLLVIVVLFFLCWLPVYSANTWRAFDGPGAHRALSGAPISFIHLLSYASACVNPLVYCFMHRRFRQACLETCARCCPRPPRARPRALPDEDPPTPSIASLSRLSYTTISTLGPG

[4] = molecular target: Cannabinoid receptor 2 (Homo sapiens) (UniProt P34972); experiment: Inhibition of human CB2 receptor at 10 uM relative to control
[5] = molecular target: Beta-1 adrenergic receptor (Homo sapiens) (UniProt P08588); experiment: Inhibition of human beta1 adrenergic receptor at 10 uM relative to control
[6] = molecular target: Alpha-2A adrenergic receptor (Homo sapiens) (UniProt P08913); experiment: Inhibition of human alpha2A adrenergic receptor at 10 uM relative to control
[7] = molecular target: Adrenergic receptor alpha-2 (Rattus norvegicus) (UniProt P22086+P19328+P22909); experiment: Inhibition of rat alpha2 adrenergic receptor at 10 uM relative to control
[8] = molecular target: Alpha-1D adrenergic receptor (Homo sapiens) (UniProt P25100); experiment: Inhibition of human alpha1D adrenergic receptor at 10 uM relative to control
[9] = molecular target: Adenosine receptor A3 (Homo sapiens) (UniProt P0DMS8); experiment: Inhibition of human adenosine A3 receptor at 10 uM relative to control
Chain of Adenosine receptor A3 (Homo sapiens) (P0DMS8 whole entry): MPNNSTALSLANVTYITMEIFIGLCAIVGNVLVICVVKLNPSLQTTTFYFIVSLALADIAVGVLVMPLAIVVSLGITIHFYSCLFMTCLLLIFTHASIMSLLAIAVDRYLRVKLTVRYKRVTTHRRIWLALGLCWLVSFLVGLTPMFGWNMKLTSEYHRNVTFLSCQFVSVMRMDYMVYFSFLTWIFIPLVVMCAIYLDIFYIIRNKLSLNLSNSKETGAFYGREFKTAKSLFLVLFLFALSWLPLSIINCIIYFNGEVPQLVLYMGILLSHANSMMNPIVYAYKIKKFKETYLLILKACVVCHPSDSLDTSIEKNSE

[10] = molecular target: Adenosine receptor A2a (Homo sapiens) (UniProt P29274); experiment: Inhibition of human adenosine A2A receptor at 10 uM relative to control
Chain of Adenosine receptor A2a (Homo sapiens) (P29274 whole entry): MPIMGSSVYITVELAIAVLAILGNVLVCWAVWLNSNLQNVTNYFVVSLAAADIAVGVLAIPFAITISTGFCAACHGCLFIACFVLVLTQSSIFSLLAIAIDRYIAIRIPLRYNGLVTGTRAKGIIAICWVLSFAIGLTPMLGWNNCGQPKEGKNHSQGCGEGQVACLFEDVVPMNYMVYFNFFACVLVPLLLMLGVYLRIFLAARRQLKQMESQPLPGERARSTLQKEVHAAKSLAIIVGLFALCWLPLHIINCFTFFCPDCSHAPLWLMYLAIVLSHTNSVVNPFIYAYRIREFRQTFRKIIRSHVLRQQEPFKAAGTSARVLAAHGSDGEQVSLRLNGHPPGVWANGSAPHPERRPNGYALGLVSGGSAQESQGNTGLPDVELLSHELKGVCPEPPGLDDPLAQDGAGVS

Bos taurus = species on record: Bos taurus; experiment: Inhibition of bovine PKA at 100 uM relative to control
[11] = molecular target: Phosphodiesterase 4 (Homo sapiens) (UniProt P27815+Q08499+Q07343+Q08493); experiment: Inhibition of human PDE4 at 100 uM relative to control; format: protein assay
[12] = molecular target: Neprilysin (Homo sapiens) (UniProt P08473); experiment: Inhibition of human neutral endopeptidase at 10 uM relative to control
[13] = molecular target: Interstitial collagenase (Homo sapiens) (UniProt P03956); experiment: Inhibition of human MMP-1 at 10 uM relative to control
[14] = molecular target: Endothelin-converting enzyme 1 (Homo sapiens) (UniProt P42892); experiment: Inhibition of human ECE-1 at 10 uM relative to control
Chain of Endothelin-converting enzyme 1 (Homo sapiens) (P42892 whole entry): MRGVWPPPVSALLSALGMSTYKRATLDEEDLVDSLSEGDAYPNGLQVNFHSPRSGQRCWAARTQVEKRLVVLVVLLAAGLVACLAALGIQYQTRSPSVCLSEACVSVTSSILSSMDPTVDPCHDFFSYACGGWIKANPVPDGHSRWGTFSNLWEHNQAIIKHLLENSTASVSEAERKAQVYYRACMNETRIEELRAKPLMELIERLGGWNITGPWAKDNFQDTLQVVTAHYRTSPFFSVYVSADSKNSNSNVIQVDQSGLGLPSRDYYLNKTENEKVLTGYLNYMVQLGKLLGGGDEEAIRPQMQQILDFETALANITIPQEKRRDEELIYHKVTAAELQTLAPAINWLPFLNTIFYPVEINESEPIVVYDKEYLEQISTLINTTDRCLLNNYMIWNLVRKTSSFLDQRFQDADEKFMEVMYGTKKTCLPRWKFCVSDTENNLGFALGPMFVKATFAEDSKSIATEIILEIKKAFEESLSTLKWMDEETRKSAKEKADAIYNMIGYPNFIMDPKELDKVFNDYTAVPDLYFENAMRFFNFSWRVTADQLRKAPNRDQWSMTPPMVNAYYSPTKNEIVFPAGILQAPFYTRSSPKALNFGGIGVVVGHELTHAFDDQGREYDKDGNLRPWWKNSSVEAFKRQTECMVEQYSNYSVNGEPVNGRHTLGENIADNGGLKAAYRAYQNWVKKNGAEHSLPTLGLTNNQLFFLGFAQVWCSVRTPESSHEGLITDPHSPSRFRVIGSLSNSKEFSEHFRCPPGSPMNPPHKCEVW

[15] = molecular target: Nitric oxide synthase, inducible (Mus musculus) (UniProt P29477); experiment: Inhibition of mouse iNOS at 10 uM relative to control
[16] = molecular target: Polyunsaturated fatty acid lipoxygenase ALOX12 (Homo sapiens) (UniProt P18054); experiment: Inhibition of human 12-lipoxygenase at 10 uM relative to control
Chain of Polyunsaturated fatty acid lipoxygenase ALOX12 (Homo sapiens) (P18054 whole entry): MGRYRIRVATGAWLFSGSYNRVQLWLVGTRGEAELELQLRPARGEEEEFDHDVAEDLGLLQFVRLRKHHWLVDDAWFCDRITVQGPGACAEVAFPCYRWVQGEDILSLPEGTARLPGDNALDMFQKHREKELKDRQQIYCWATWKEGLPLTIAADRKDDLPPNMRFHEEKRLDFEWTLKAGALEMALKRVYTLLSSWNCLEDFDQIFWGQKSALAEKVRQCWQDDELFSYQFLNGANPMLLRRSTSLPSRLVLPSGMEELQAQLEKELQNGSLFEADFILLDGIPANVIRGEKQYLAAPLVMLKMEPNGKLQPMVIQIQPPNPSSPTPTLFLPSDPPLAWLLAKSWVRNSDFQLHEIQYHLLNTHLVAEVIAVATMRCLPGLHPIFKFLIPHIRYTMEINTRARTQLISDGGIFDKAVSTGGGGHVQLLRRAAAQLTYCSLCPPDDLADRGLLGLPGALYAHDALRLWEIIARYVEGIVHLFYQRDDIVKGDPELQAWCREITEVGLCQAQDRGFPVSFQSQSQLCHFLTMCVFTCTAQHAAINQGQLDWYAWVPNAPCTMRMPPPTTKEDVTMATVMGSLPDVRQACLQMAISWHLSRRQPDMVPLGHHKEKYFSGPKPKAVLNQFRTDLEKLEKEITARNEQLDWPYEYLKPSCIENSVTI

[17] = molecular target: 5-hydroxytryptamine receptor 2B (Homo sapiens, UniProt P41595); experiment: Inhibition of human 5-HT2B receptor at 1 uM relative to control
Chain of 5-hydroxytryptamine receptor 2B (P41595 whole entry): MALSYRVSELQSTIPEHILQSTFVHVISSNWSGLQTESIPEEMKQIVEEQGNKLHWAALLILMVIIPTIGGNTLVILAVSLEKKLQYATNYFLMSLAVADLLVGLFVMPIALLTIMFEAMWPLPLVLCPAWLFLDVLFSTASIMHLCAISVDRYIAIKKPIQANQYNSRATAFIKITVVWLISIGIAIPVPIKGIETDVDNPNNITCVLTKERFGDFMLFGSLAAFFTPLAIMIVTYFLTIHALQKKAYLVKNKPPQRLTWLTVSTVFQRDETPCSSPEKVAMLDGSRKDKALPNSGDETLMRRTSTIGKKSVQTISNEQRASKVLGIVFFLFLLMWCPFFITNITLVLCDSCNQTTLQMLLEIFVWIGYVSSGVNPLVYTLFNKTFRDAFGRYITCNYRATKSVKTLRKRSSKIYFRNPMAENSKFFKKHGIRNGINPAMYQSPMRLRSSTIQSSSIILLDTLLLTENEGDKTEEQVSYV

[18] = molecular target: T1, 5-hydroxytryptamine receptor 1A (Homo sapiens) (UniProt P08908); experiment: Inhibition of human 5-HT1A receptor at 10 uM relative to control
T1 sequence (whole entry): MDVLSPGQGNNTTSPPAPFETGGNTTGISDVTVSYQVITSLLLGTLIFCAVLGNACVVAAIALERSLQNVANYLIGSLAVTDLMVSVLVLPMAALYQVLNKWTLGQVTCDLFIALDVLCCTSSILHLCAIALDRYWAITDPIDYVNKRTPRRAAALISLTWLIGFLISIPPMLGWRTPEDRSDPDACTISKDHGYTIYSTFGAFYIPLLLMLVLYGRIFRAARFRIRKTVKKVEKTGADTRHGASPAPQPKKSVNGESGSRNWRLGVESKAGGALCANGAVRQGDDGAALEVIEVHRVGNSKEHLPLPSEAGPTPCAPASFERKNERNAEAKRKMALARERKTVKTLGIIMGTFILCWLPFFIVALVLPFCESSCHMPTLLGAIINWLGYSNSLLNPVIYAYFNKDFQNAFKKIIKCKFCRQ

Oryctolagus cuniculus [19] = species on record: Oryctolagus cuniculus; experiment: Inhibition of rabbit monoamine transporter at 0.1 uM relative to control
Oryctolagus cuniculus [20] = species on record: Oryctolagus cuniculus; experiment: Inhibition of rabbit monoamine transporter at 1 uM relative to control
Rattus norvegicus [21] = species on record: Rattus norvegicus; experiment: Inhibition of rat choline transporter at 10 uM relative to control
Cavia porcellus [22] = species on record: Cavia porcellus; experiment: Inhibition of guinea pig adenosine transporter at 0.1 uM relative to control
Cavia porcellus [23] = species on record: Cavia porcellus; experiment: Inhibition of guinea pig adenosine transporter at 1 uM relative to control
[24] = molecular target: Thyrotropin-releasing hormone receptor (Rattus norvegicus) (UniProt Q01717); experiment: Inhibition of rat TRH receptor at 10 uM relative to control
[25] = molecular target: Neuromedin-K receptor (Homo sapiens) (UniProt P29371); experiment: Inhibition of human NK3 receptor at 10 uM relative to control
Chain of Neuromedin-K receptor (Homo sapiens) (P29371 whole entry): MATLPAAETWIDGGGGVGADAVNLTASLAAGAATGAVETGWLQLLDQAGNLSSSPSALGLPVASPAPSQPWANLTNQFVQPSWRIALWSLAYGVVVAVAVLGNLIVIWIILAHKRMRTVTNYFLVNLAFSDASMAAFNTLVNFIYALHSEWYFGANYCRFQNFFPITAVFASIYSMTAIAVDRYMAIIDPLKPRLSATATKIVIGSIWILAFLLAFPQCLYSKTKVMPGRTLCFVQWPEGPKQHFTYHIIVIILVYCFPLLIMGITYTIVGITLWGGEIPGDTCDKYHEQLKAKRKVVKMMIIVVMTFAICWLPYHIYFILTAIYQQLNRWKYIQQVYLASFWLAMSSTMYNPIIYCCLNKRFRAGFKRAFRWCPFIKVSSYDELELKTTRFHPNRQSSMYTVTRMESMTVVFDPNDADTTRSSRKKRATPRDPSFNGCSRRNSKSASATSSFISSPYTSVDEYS

[26] = molecular target: Somatostatin receptor type 4 (Homo sapiens) (UniProt P31391); experiment: Inhibition of human SST4 receptor at 10 uM relative to control
[27] = molecular target: Somatostatin receptor type 5 (Homo sapiens) (UniProt P35346); experiment: Inhibition of human SST5 receptor at 10 uM relative to control
[28] = molecular target: Somatostatin receptor type 2 (Homo sapiens) (UniProt P30874); experiment: Inhibition of human SST2 receptor at 10 uM relative to control
[29] = molecular target: Prostaglandin E2 receptor EP4 subtype (Homo sapiens) (UniProt P35408); experiment: Inhibition of human prostanoid EP4 receptor at 10 uM relative to control
Chain of Prostaglandin E2 receptor EP4 subtype (Homo sapiens) (P35408 whole entry): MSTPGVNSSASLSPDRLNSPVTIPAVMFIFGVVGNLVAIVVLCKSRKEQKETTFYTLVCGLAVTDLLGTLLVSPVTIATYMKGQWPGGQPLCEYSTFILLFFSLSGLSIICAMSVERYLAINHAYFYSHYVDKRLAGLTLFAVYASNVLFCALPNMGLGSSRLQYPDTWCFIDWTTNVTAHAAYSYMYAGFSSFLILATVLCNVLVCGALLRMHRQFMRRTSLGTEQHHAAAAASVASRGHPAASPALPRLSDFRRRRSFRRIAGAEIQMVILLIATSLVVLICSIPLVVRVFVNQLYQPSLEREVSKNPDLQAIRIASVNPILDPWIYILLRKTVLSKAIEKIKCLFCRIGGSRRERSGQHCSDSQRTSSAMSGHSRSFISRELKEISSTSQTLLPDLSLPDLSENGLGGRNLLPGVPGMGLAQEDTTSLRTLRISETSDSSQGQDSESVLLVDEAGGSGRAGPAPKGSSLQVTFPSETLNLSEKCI

[30] = molecular target: Prostaglandin E2 receptor EP3 subtype (Homo sapiens) (UniProt P43115); experiment: Inhibition of human prostanoid EP3 receptor at 10 uM relative to control
[31] = molecular target: Delta-type opioid receptor (Homo sapiens) (UniProt P41143); experiment: Inhibition of human delta opioid receptor at 10 uM relative to control
[32] = molecular target: Kappa-type opioid receptor (Homo sapiens) (UniProt P41145); experiment: Inhibition of human kappa opioid receptor at 10 uM relative to control
[33] = molecular target: Neuropeptide Y receptor type 2 (Homo sapiens) (UniProt P49146); experiment: Inhibition of human neuropeptide YY2 receptor at 10 uM relative to control
Chain of Neuropeptide Y receptor type 2 (Homo sapiens) (P49146 whole entry): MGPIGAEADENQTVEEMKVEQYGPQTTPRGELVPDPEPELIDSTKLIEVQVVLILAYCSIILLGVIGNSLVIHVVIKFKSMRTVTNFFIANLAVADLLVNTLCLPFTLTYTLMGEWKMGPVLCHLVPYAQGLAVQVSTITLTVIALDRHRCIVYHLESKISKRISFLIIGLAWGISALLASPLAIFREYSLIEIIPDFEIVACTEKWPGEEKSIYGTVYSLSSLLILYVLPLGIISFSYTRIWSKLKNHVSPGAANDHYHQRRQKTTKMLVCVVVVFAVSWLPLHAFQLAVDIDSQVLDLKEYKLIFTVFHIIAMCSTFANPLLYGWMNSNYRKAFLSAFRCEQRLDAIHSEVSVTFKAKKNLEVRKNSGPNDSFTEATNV

[34] = molecular target: Neurotensin receptor type 1 (Homo sapiens) (UniProt P30989); experiment: Inhibition of human NT1 receptor at 10 uM relative to control
Chain of Neurotensin receptor type 1 (Homo sapiens) (P30989 whole entry): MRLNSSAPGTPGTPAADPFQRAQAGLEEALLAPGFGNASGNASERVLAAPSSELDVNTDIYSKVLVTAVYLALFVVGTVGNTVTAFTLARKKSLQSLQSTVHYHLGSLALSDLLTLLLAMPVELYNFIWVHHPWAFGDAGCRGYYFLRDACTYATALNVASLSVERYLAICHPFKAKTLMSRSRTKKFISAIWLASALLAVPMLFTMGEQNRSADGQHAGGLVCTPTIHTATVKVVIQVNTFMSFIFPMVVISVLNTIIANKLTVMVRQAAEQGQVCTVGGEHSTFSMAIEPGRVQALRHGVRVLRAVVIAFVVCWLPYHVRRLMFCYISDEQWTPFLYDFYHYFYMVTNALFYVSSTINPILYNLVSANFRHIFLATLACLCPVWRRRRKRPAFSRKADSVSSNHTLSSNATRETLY

[35] = molecular target: Cysteinyl leukotriene receptor 1 (Homo sapiens) (UniProt Q9Y271); experiment: Inhibition of human CysLT1 receptor at 10 uM relative to control
[36] = molecular target: Glutamate NMDA receptor (Rattus norvegicus) (UniProt P35439+Q00959+Q00960+Q00961+Q62645+Q8VHN2+Q9R1M7); experiment: Inhibition of rat NMDA receptor agonist binding site at 10 uM relative to control; format: protein-complex assay
Rattus norvegicus [37] = species on record: Rattus norvegicus; experiment: Inhibition of rat AMPA receptor at 10 uM relative to control

Which inhibition [1] does the source give for `COc1ccc(CNC(=O)c2cc(-c3cc(Cl)cc(Cl)c3)cnc2-c2cccnc2)cc1OC` here?
Its inhibition is 39%.

What about the inhibition [2] of the same compound?
The inhibition was -7%.

What about the inhibition (D(3) dopamine receptor) of the same compound?
Its inhibition is 3%.

And the inhibition [3]?
Its inhibition is -4%.

And the inhibition [4]?
Its inhibition is 2%.

What about the inhibition [5] of the same compound?
Its inhibition is 9%.

And the inhibition [6]?
The inhibition was 19%.

What about the inhibition [7] of the same compound?
The inhibition was 37%.

And the inhibition [8]?
The inhibition was 26%.

And the inhibition [9]?
Its inhibition is 33%.

And the inhibition [10]?
The inhibition was 8%.

What about the inhibition (Bos taurus) of the same compound?
The inhibition was -7%.

What about the inhibition [11] of the same compound?
The inhibition was 5%.

And the inhibition [12]?
The inhibition was -5%.

And the inhibition [13]?
Its inhibition is 4%.

And the inhibition [14]?
The inhibition was -10%.

What about the inhibition [15] of the same compound?
The inhibition was 2%.

What about the inhibition [16] of the same compound?
The inhibition was 11%.

What about the inhibition [17] of the same compound?
Its inhibition is 52%.

What about the inhibition [18] of the same compound?
The inhibition was 69%.

And the inhibition (Oryctolagus cuniculus [19])?
Its inhibition is 7%.

And the inhibition (Oryctolagus cuniculus [20])?
The inhibition was 20%.

And the inhibition (Rattus norvegicus [21])?
Its inhibition is 1%.

What about the inhibition (Cavia porcellus [22]) of the same compound?
Its inhibition is 15%.

What about the inhibition (Cavia porcellus [23]) of the same compound?
Its inhibition is 32%.

And the inhibition [24]?
The inhibition was -3%.

And the inhibition [25]?
The inhibition was 13%.

What about the inhibition [26] of the same compound?
Its inhibition is 5%.

What about the inhibition [27] of the same compound?
The inhibition was 14%.

And the inhibition [28]?
Its inhibition is -3%.

And the inhibition [29]?
The inhibition was 19%.

And the inhibition [30]?
Its inhibition is 19%.

And the inhibition [31]?
The inhibition was 8%.

What about the inhibition [32] of the same compound?
The inhibition was 9%.

What about the inhibition [33] of the same compound?
Its inhibition is 0%.

And the inhibition [34]?
Its inhibition is 21%.

And the inhibition [35]?
Its inhibition is 9%.

And the inhibition [36]?
Its inhibition is 1%.

What about the inhibition (Rattus norvegicus [37]) of the same compound?
The inhibition was 9%.
